From US20230181662A1, “USES OF ANTRODIA CINNAMOMEA EXTRACT IN MANUFACTURING PRODUCTS FOR REDUCING EXPRESSION AND TREATING ASSOCIATED DISEASES OF ANGIOTENSIN CONVERTING ENZYME 2” (priority 2020, published 2023)
Entries after “also recorded” stand apart in the source; their conditions may differ.

Target: ACE-2 (Homo sapiens, UniProt Q9BYF1)
Test: ACE-2 enzyme activity assay (MCA based peptide substrate, fluorescence)
Assay type: biochemical
Conditions: 20 μg/mL each compound

Chain of ACE-2 (Q9BYF1 18-805, species assumed): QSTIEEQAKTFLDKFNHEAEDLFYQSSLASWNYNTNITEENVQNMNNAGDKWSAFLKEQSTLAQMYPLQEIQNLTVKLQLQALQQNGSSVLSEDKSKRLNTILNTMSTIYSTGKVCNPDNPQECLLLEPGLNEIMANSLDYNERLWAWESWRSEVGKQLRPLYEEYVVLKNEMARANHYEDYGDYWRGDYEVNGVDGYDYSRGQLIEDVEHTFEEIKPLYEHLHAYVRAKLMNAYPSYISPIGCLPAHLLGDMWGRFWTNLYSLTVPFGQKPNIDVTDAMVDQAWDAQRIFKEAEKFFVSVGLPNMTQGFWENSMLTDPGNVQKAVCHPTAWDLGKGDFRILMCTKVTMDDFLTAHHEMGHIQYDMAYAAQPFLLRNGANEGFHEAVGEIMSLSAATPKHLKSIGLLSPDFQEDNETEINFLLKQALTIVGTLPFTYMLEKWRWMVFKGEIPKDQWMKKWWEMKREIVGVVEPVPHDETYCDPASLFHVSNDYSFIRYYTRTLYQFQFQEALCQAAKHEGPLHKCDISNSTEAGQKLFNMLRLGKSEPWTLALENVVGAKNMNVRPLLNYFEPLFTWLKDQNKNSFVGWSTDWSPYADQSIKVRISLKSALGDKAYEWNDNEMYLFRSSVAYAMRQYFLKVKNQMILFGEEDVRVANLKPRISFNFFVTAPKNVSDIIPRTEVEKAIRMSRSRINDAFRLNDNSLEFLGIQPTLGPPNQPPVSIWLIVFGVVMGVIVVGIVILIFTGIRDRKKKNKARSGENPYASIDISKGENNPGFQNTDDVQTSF

Molecule | inhibition of ACE-2 enzyme activity
C=C(CC[C@@H](C(=O)O)[C@H]1C[C@H](O)[C@@]2(C)C3=CC[C@H]4C(C)(C)[C@@H](O)CC[C@]4(C)C3=CC[C@]12C)C(C)C [DSA, dehydrosulphurenic acid] | more than 30%

Same assay, conditions: 20 μg/mL each ingredient

Molecule | inhibition ability on ACE-2 enzymatic activity
C=C(CC[C@@H](C)[C@H]1CC[C@H]2C3=C(C(=O)C[C@]12C)[C@@]1(C)CCC(=O)[C@@H](C)[C@@H]1CC3)C(C)C(=O)O (stereo partly shown) [Antcin A] | stronger inhibition activity
C=C(CCC(C)C1CCC2C3=C(C(=O)C(O)C21C)C1(C)CCC(O)C(C)C1CC3=O)C(C)C(=O)O (stereo not shown) [Antcin H] | had inhibition ability
C=C(CC[C@@H](C(=O)O)[C@H]1CC[C@@]2(C)C3=CC[C@H]4C(C)(C)[C@@H](O)CC[C@]4(C)C3=CC[C@]12C)C(C)C [DEA, dehydroeburicoic acid] | had inhibition ability; also recorded: have ability of inhibition on ACE-2
C=C(CC[C@@H](C(=O)O)[C@H]1C[C@H](O)[C@@]2(C)C3=CC[C@H]4C(C)(C)[C@@H](O)CC[C@]4(C)C3=CC[C@]12C)C(C)C [DSA, dehydrosulphurenic acid] | stronger inhibition activity; also recorded: have ability of inhibition on ACE-2
Antcin C | had inhibition ability
Antcin K | stronger inhibition activity; also recorded: have ability of inhibition on ACE-2
